The source made the active and inactive calls. No cut-off for these calls is given here.
Legend:
Toll-like receptor 2 [1] = molecular target: T1, Toll-like receptor 2 (Homo sapiens, UniProt O60603); assay: Agonist activity at human TLR2 expressed in HEK-Blue hTLR2 cells assessed as activation of TLR2-triggered SEAP signaling up to 10 uM incubated for 16 hrs by SEAP-based plate reader analysis; assay type: cell-based; conditions: filed as agonist
THP-1 [2] = assay: Cytotoxicity against human THP1 cells assessed as reduction in cell viability at 100 uM incubated for 24 hrs by CCK8 assay; assay type: toxicity, cell-based; conditions: thp-1, 24 h
THP-1 [3] = assay: Induction of p38 phosphorylation in human PMA-differentiated THP-1 cells at 100 nM incubated up to 120 mins by Western blotting analysis; assay type: functional, cell-based
THP-1 [4] = assay: Induction of JNK phosphorylation in human PMA-differentiated THP-1 cells at 100 nM incubated up to 120 mins by Western blotting analysis; assay type: functional, cell-based
[5] = Cytotoxicity against human HEK-Blue hTLR2 cells assessed as reduction in cell viability at 100 uM incubated for 24 hrs by CCK8 assay; assay type: toxicity, cell-based; conditions: hek-blue htlr2, 24 h
THP-1 [6] = assay: Induction of TNFalpha production in human PMA-differentiated THP-1 cells supernatant incubated for 4 hrs by ELISA method; assay type: functional, cell-based
THP-1 [7] = assay: Induction of IL1beta production in human PMA-differentiated THP-1 cells supernatant incubated for 4 hrs by ELISA method; assay type: functional, cell-based
Toll-like receptor 2 [8] = molecular target: T1, Toll-like receptor 2; assay: Agonist activity at human TLR2 expressed in HEK-Blue hTLR2 cells assessed as activation of TLR2-triggered SEAP signaling at 0.1 uM incubated for 16 hrs in presence of anti-hTLR2 by SEAP-based plate reader analysis; assay type: cell-based
THP-1 [9] = assay: Upregulation of MyD88 protein expression in human PMA-differentiated THP-1 cells at 100 nM by Western blotting analysis; assay type: functional, cell-based; conditions: time 0-120 min, TDE = time-dependent effect
THP-1 [10] = assay: Induction of IL6 production in human PMA-differentiated THP-1 cells supernatant incubated for 4 hrs by ELISA method; assay type: functional, cell-based
Toll-like receptor 2 [11] = molecular target: T1, Toll-like receptor 2; assay: Agonist activity at human TLR2 expressed in HEK-Blue hTLR2 cells as SEAP expression incubated for 16 hrs by SEAP-based plate reader analysis; assay type: cell-based
Toll-like receptor 2 [12] = molecular target: T1, Toll-like receptor 2; assay: Agonist activity at human TLR2 expressed in HEK-Blue hTLR2 cells assessed as activation of TLR2-triggered SEAP signaling at 0.1 uM incubated for 16 hrs in presence of anti-hTLR1 by SEAP-based plate reader analysis; assay type: cell-based
THP-1 [13] = assay: Induction of p65 phosphorylation in human PMA-differentiated THP-1 cells at 100 nM incubated up to 120 mins by Western blotting analysis; assay type: functional, cell-based

T1 sequence (O60603 whole entry): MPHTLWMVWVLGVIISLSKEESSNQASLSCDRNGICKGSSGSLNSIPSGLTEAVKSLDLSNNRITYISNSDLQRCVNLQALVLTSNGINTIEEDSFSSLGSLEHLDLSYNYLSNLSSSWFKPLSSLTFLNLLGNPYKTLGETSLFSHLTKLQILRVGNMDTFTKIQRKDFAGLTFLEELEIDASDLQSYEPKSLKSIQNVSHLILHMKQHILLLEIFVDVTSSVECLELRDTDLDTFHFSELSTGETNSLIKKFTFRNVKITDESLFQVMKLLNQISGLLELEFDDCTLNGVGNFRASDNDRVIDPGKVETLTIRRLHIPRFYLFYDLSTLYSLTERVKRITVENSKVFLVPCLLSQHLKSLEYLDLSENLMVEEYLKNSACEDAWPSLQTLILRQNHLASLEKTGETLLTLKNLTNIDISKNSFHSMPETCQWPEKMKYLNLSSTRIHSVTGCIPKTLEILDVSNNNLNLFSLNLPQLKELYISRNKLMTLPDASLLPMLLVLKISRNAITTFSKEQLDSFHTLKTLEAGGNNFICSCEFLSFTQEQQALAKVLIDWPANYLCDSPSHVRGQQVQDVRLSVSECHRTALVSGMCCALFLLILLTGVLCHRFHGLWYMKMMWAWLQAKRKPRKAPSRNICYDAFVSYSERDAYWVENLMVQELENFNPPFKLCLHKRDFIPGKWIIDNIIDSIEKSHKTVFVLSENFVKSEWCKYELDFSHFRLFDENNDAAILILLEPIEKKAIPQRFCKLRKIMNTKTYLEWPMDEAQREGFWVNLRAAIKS

## CCCC[C@@H]1CN(C(=O)c2ccc(C(=O)N3C[C@@H](C(=O)N[C@H]4C[C@@H]4c4ccccc4)[C@H](C(=O)N[C@H]4C[C@@H]4c4ccccc4)C3)cc2)C[C@H]1C(=O)N[C@H]1C[C@@H]1c1ccccc1
Toll-like receptor 2 [1]
  Activity: Active
THP-1 [2]
  Activity: Non-Toxic
THP-1 [3]
  Activity: Active
THP-1 [4]
  Activity: Active
[5]
  Activity: Non-Toxic
THP-1 [6]
  Activity: Dose-Dependent Effect
THP-1 [7]
  Activity: Dose-Dependent Effect
Toll-like receptor 2 [8]
  Activity: inactive
THP-1 [9]
  Activity: Tde
THP-1 [10]
  Activity: Dose-Dependent Effect
Toll-like receptor 2 [11]
  EC50: 39 nM
Toll-like receptor 2 [12]
  Activity: inactive
THP-1 [13]
  Activity: Active

## CC1CN(C(=O)c2ccc(C(=O)N3C[C@@H](C(=O)N[C@H]4C[C@@H]4c4ccccc4)[C@H](C(=O)N[C@H]4C[C@@H]4c4ccccc4)C3)cc2)CC1C(=O)N[C@H]1C[C@@H]1c1ccccc1 (stereo not given in full)
Toll-like receptor 2 [11]
  EC50: 700 nM

## CCC1CN(C(=O)c2ccc(C(=O)N3CC(CC)[C@H](C(=O)N[C@H]4C[C@@H]4c4ccccc4)C3)cc2)CC1C(=O)N[C@H]1C[C@@H]1c1ccccc1 (stereo not given in full)
Toll-like receptor 2 [11]
  EC50: > 5000 nM

## CC(C)CC1CN(C(=O)c2ccc(C(=O)N3C[C@@H](C(=O)N[C@H]4C[C@@H]4c4ccccc4)[C@H](C(=O)N[C@H]4C[C@@H]4c4ccccc4)C3)cc2)CC1C(=O)N[C@H]1C[C@@H]1c1ccccc1 (stereo not given in full)
Toll-like receptor 2 [11]
  EC50: 286 nM

## CCC[C@H]1CN(C(=O)c2ccc(C(=O)N3C[C@@H](C(=O)N[C@H]4C[C@@H]4c4ccccc4)[C@H](C(=O)N[C@H]4C[C@@H]4c4ccccc4)C3)cc2)C[C@@H]1C(=O)N[C@H]1C[C@@H]1c1ccccc1
Toll-like receptor 2 [11]
  EC50: 87 nM

## CC1CN(C(=O)c2ccc(C(=O)N3CC(C)[C@H](C(=O)N[C@H]4C[C@@H]4c4ccccc4)C3)cc2)CC1C(=O)N[C@H]1C[C@@H]1c1ccccc1 (stereo not given in full)
Toll-like receptor 2 [11]
  EC50: > 5000 nM

## CCCC1CN(C(=O)c2ccc(C(=O)N3C[C@@H](C(=O)N[C@H]4C[C@@H]4c4ccccc4)[C@H](C(=O)N[C@H]4C[C@@H]4c4ccccc4)C3)cc2)CC1C(=O)N[C@H]1C[C@@H]1c1ccccc1 (stereo not given in full)
Toll-like receptor 2 [11]
  EC50: 107 nM

## O=C(N[C@H]1C[C@@H]1c1ccccc1)C1CN(C(=O)c2ccc(C(=O)N3C[C@@H](C(=O)N[C@H]4C[C@@H]4c4ccccc4)[C@H](C(=O)N[C@H]4C[C@@H]4c4ccccc4)C3)cc2)C1
Toll-like receptor 2 [11]
  EC50: > 5000 nM

## O=C(N[C@H]1C[C@@H]1c1ccccc1)[C@H]1CCN(C(=O)c2ccc(C(=O)N3C[C@@H](C(=O)N[C@H]4C[C@@H]4c4ccccc4)[C@H](C(=O)N[C@H]4C[C@@H]4c4ccccc4)C3)cc2)C1
Toll-like receptor 2 [11]
  EC50: > 5000 nM

## CCCC1CN(C(=O)c2ccc(C(=O)N3CC(CCC)[C@H](C(=O)N[C@H]4C[C@@H]4c4ccccc4)C3)cc2)CC1C(=O)N[C@H]1C[C@@H]1c1ccccc1 (stereo not given in full)
Toll-like receptor 2 [11]
  EC50: > 5000 nM

## CCC1CN(C(=O)c2ccc(C(=O)N3C[C@@H](C(=O)N[C@H]4C[C@@H]4c4ccccc4)[C@H](C(=O)N[C@H]4C[C@@H]4c4ccccc4)C3)cc2)CC1C(=O)N[C@H]1C[C@@H]1c1ccccc1 (stereo not given in full)
Toll-like receptor 2 [11]
  EC50: 514 nM

## CCCCC1CN(C(=O)c2ccc(C(=O)N3CC(CCCC)[C@H](C(=O)N[C@H]4C[C@@H]4c4ccccc4)C3)cc2)CC1C(=O)N[C@H]1C[C@@H]1c1ccccc1 (stereo not given in full)
Toll-like receptor 2 [11]
  EC50: 1500 nM

## CC(C)C1CN(C(=O)c2ccc(C(=O)N3CC(C(C)C)[C@H](C(=O)N[C@H]4C[C@@H]4c4ccccc4)C3)cc2)CC1C(=O)N[C@H]1C[C@@H]1c1ccccc1 (stereo not given in full)
Toll-like receptor 2 [11]
  EC50: > 5000 nM

## O=C(N[C@H]1C[C@@H]1c1ccccc1)C1CN(C(=O)c2ccc(C(=O)N3C[C@@H](C(=O)N[C@H]4C[C@@H]4c4ccccc4)[C@H](C(=O)N[C@H]4C[C@@H]4c4ccccc4)C3)cc2)CC1CF (stereo not given in full)
Toll-like receptor 2 [11]
  EC50: > 5000 nM

## CCCCC1CN(C(=O)c2ccc(C(=O)N3C[C@@H](C(=O)N[C@H]4C[C@@H]4c4ccccc4)[C@H](C(=O)N[C@H]4C[C@@H]4c4ccccc4)C3)cc2)CC1C(=O)N[C@H]1C[C@@H]1c1ccccc1 (stereo not given in full)
Toll-like receptor 2 [11]
  EC50: 37 nM

## CC(C)CC1CN(C(=O)c2ccc(C(=O)N3CC(CC(C)C)[C@H](C(=O)N[C@H]4C[C@@H]4c4ccccc4)C3)cc2)CC1C(=O)N[C@H]1C[C@@H]1c1ccccc1 (stereo not given in full)
Toll-like receptor 2 [11]
  EC50: > 5000 nM

## O=C(N[C@H]1C[C@@H]1c1ccccc1)C1CN(C(=O)c2ccc(C(=O)N3C[C@@H](C(=O)N[C@H]4C[C@@H]4c4ccccc4)[C@H](C(=O)N[C@H]4C[C@@H]4c4ccccc4)C3)cc2)CC1CO (stereo not given in full)
Toll-like receptor 2 [11]
  EC50: > 5000 nM

## CC(C)C1CN(C(=O)c2ccc(C(=O)N3C[C@@H](C(=O)N[C@H]4C[C@@H]4c4ccccc4)[C@H](C(=O)N[C@H]4C[C@@H]4c4ccccc4)C3)cc2)CC1C(=O)N[C@H]1C[C@@H]1c1ccccc1 (stereo not given in full)
Toll-like receptor 2 [11]
  EC50: 702 nM

## CCC[C@@H]1CN(C(=O)c2ccc(C(=O)N3C[C@@H](C(=O)N[C@H]4C[C@@H]4c4ccccc4)[C@H](C(=O)N[C@H]4C[C@@H]4c4ccccc4)C3)cc2)C[C@H]1C(=O)N[C@H]1C[C@@H]1c1ccccc1
Toll-like receptor 2 [11]
  EC50: 177 nM

## O=C(N[C@H]1C[C@@H]1c1ccccc1)C1CCN(C(=O)c2ccc(C(=O)N3C[C@@H](C(=O)N[C@H]4C[C@@H]4c4ccccc4)[C@H](C(=O)N[C@H]4C[C@@H]4c4ccccc4)C3)cc2)CC1
Toll-like receptor 2 [11]
  EC50: > 5000 nM

## CCCC[C@H]1CN(C(=O)c2ccc(C(=O)N3C[C@@H](C(=O)N[C@H]4C[C@@H]4c4ccccc4)[C@H](C(=O)N[C@H]4C[C@@H]4c4ccccc4)C3)cc2)C[C@@H]1C(=O)N[C@H]1C[C@@H]1c1ccccc1
Toll-like receptor 2 [1]
  Activity: Active
THP-1 [2]
  Activity: Non-Toxic
THP-1 [3]
  Activity: Active
THP-1 [4]
  Activity: Active
[5]
  Activity: Non-Toxic
THP-1 [6]
  Activity: Dose-Dependent Effect
THP-1 [7]
  Activity: Dose-Dependent Effect
Toll-like receptor 2 [8]
  Activity: inactive
THP-1 [9]
  Activity: Tde
THP-1 [10]
  Activity: Dose-Dependent Effect
Toll-like receptor 2 [11]
  EC50: 35 nM
Toll-like receptor 2 [12]
  Activity: inactive
THP-1 [13]
  Activity: Active

From ChEMBL document CHEMBL5352437, “Identification and immunological evaluation of novel TLR2 agonists through structural optimization of Diprovocim” (Eur J Med Chem, 2022)
